The values below come from US20170196797A1 (AMOREPACIFIC CORPORATION, priority 2014, published 2017).

The test system of data set [1] is collagenase. The experiment in a line: Collagenase expression suppression in human fibroblasts. The format is cell-based. The note with it: 10^−4 M, 24 hours, untreated group = 100. On the procedure: Tocopherol and EGCG are known to prevent skin aging by regenerating epidermal cells.
Human fibroblasts were added to a 96-well microtiter plate containing Dulbecco's modified Eagle's medium (DMEM) supplemented with 2.5 wt % fetal bovine serum, with 5,000 cells/well, and cultured to about 90% confluence.
The production of collagenase in the cell culture was measured using a collagenase measuring system (Amersham Pharmacia, USA). First, the harvested cell culture was added to a 96-well plate having primary collagenase antibodies applied uniformly thereto and was incubated for 3 hours in a constant-temperature bath. 3 hours later, after adding chromophore-conjugated secondary collagen antibodies to the 96-well plate, incubation was performed for 15 minutes. 15 minutes later, a substance inducing color development was added and color development was induced at room temperature for 15 minutes. […] The intensity of the yellow color varied depending on the degree of progress of the reaction.
A cell culture obtained without treating with the composition was used as a control group. That is to say, the expression level of collagenase in the group treated with the test substance was calculated relative to that of the untreated group as 100.
Collagenase expression level(%)=Absorbance of group treated with test substance/Absorbance of control group×100 [Equation 1]

For data set [2], the system named is MCP-1. Description: MCP-1 ELISA in retinoic acid-treated normal human skin keratinocytes. The class given is cell-based. The following applies: NHEKs, 24 hours. On the procedure: One day before the testing, normal human skin keratinocytes (NHEKs, Lonza) were added to a 96-well plate with 5×10^4 cells/well and cultured in a 5% CO2 incubator at 37° C. for 24 hours. 24 hours later, the cells were washed with PBS twice and the cell culture medium was replaced with a serum-free keratinocyte basement medium (KBM). […] The retinoic acid is known to promote the secretion of the inflammatory cytokine MCP (monocyte chemoattractant protein-1) as a skin irritant. […] For the ELISA, the method provided by BD Science was used.
In general terms: An ELISA detects its analyte on a solid surface through an enzyme-linked reagent.

Data set [3] deals with Mel-Ab cells. Description: Melanin production inhibition in Mel-Ab cells (Dooley's method). The class given is cell-based, mouse. The following applies: 10 ppm, added for 3 consecutive days. On the procedure: Melanocytes derived from C57BL/6 mouse (Mel-Ab cells) (Dooley, T. P. et al, Skin Pharmacol, 7, pp. 188-200) were cultured in DMEM supplemented with 10% fetal bovine serum, 100 nM 12-O-tetradecanoylphorbol-13-acetate and 1 nM cholera toxin under the condition of 37° C. and 5% CO2. The cultured Mel-Ab cells were detached with 0.25% trypsin-EDTA and cultured in a 24-well plate with a concentration of 10^5 cells/well. During the culturing, each test substance was added for 3 consecutive days starting from day 2. […] After removing the medium, the cells were washed with phosphate-buffered saline (PBS) and lysed with 1 N sodium hydroxide. After measuring absorbance at 400 nm, the melanin production inhibition was calculated according to Equation 2.
Melanin production inhibition(%)=100−(Absorbance of group treated with test substance/Absorbance of control group×100) [Equation 2]

Data set [4] in a line: Skin irritation test by sensitive panels. The format is in vivo, human. The note with it: scale 0-3.0. The source says:
0.5-1.0: Slight irritation.
1.1-2.0: Moderate irritation.
2.1-3.0: Severe irritation.

The nature of data set [5]: DPPH method, antioxidative effect. The following applies: sample concentration at which DPPH absorbance (540 nm) decreased by 50%; 37° C., 30 minutes. The class given is biochemical. On the procedure:
The DPPH method evaluates antioxidative effect by measuring and comparing the effect of suppressing DPPH oxidation based on the change in absorbance caused by the reduction of DPPH. […] After incubation at 37° C. for 30 minutes, absorbance was measured at 540 nm. The analysis result is shown in Table 3, where IC50 means the sample concentration when the absorbance was decreased by 50% due to the added sample.

The mark [6] stands for this setting: 0.5 mL on cheek, 15 sensitive panels.

`O=C(O[C@@H]1Cc2c(O)cc(O)cc2O[C@@H]1c1cc(O)c(O)c(O)c1)c1cc(O)c(O)c(O)c1` [EGCG] came in with a Collagenase expression level in data set [1] of 59%.
As to `C[C@]12CCC(=O)C=C1CC[C@@H]1[C@@H]2[C@@H](O)C[C@@]2(C)[C@H]1CC[C@]2(O)C(=O)CO` [Hydrocortisone, hydrocortisone], in data set [2] (100 nM + retinoic acid 10 μM), the MCP-1 secretion turned out to be 448.3 pg/mL.
Turning to `Oc1ccc(O)cc1` [Hydroquinone, hydroquinone], the Melanin production inhibition in data set [3] is given as 57.5%.
`O=c1cc(CO)occ1O` [Kojic acid, kojic acid]: in data set [4] (setting [6]), the Flushing score is recorded as 0.43 points and the Pricking score is reported as 0.81 points. In addition, the Mean irritation score in data set [4] (mean of pricking and flushing) came out at 0.62 points.
In data set [2] (retinoic acid 10 μM alone, untreated group 527.3), `CC1=C(/C=C/C(C)=C/C=C/C(C)=C/C(=O)O)C(C)(C)CCC1` [Retinoic acid, retinoic acid] gave an MCP-1 secretion of 804.5 pg/mL.
In data set [5], `Cc1c(C)c2c(c(C)c1O)CCC(C)(C(=O)O)O2` (stereo not drawn) [Trolox] yielded an IC50 of 57 ppm.
With tocopherol, the Collagenase expression level in data set [1] was 81%.
